Experimental data as given in US20260125382A1, “COMPOUNDS FOR INHIBITING OR DEGRADING CDK2 AND/OR CDK9 AND MEDICINAL USE THEREOF” (KOREA RESEARCH INSTITUTE OF CHEMICAL TECHNOLOGY, priority 2022, published 2026).

Tests used:
[1] = biological target: T1, CDK2 (Homo sapiens, UniProt P24941); experiment: CDK protein degradation activity (Western blotting), CDK2; assay type: cell-based; details: MDA-MB-231 cells, 16 hours, Western blot
T1 construct: endogenous in cells; host or cells: MDA-MB-231
How it was run: (§1)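 Breast cancer line MDA-MB-231, 16 h compound treatment (100 nM–10 μM final, three doses). Immunoblot quantification of CDK2/CDK9 versus tubulin, normalized to DMSO control.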

[2] = biological target: T2, CDK9 (Homo sapiens, UniProt P50750); experiment: CDK protein degradation activity (Western blotting), CDK9; assay type: cell-based; details: MDA-MB-231 cells, 16 hours, Western blot
T2 construct: endogenous in cells; host or cells: MDA-MB-231
T2 sequence (P50750 whole entry): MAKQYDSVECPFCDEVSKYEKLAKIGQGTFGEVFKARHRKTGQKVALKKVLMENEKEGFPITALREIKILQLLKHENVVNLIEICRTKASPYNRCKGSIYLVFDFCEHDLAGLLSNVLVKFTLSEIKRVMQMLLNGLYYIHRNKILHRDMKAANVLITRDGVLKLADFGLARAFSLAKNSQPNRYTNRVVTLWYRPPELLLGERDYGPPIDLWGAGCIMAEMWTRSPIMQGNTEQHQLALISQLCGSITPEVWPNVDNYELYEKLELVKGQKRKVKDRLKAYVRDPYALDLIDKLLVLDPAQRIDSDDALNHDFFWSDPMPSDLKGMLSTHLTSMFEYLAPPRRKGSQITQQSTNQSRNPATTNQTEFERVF
How it was run: as §1

Row | Enzyme degradation CDK2 (% remaining) @ 0.1 μM [1] | Enzyme degradation CDK2 (% remaining) @ 1 μM [1] | Enzyme degradation CDK2 (% remaining) @ 10 μM [1] | Enzyme degradation CDK9 (% remaining) @ 0.1 μM [2] | Enzyme degradation CDK9 (% remaining) @ 1 μM [2] | Enzyme degradation CDK9 (% remaining) @ 10 μM [2] | SMILES
1 | 90% | 60% | 70% | 50% | 0% | 0% | Cc1cccc(C(=O)N[C@H]2C[C@@H](n3cnc4c(NC5CCN(CCOC6CCN(C(=O)COc7ccc8c(c7)C(=O)N([C@H]7CCC(=O)NC7=O)C8=O)CC6)CC5)ncnc43)C2)n1 [Compound 43, N-((1s,3s)-3-(6-((1-(2-((1-(2-((2-(2,6-dioxopiperidin-3-yl)-1,3-dioxoisoindolin-5-yl)oxy)acetyl)piperidin-4-yl)oxy)ethyl)piperidin-4-yl)amino)-9H-purin-9-yl)cyclobutyl)-6-methylpicolinamide]
2 | 70% | 60% | 30% | 30% | 20% | 10% | O=C1CC[C@H](N2C(=O)c3cccc(N4CCC5(CC4)CC(N4CCN(c6ccc(Nc7ncnc8c7ncn8[C@H]7C[C@@H](NC(=O)Cc8ccccc8)C7)cc6)CC4)C5)c3C2=O)C(=O)N1 [Compound 209, N-((1s,3s)-3-(6-((4-(4-(7-(2-(2,6-dioxopiperidin-3-yl)-1,3-dioxoisoindolin-4-yl)-7-azaspiro[3.5]nonan-2-yl)piperazin-1-yl)phenyl)amino)-9H-purin-9-yl)cyclobutyl)-2-phenylacetamide]
3 | 20% | 0% | 0% | 0/0/0% | 0/0/0% | 0/0/0% | O=C1CCC(N2C(=O)c3ccc(N4CCC(CCN5CCN(c6ccc(Nc7ncnc8c7ncn8[C@H]7C[C@@H](NC(=O)Cc8ccccc8)C7)cc6)CC5)CC4)cc3C2=O)C(=O)N1 (stereo partly drawn) [Compound 327, N-((1s,3s)-3-(6-((4-(4-(2-(1-(2-(2,6-dioxopiperidin-3-yl)-1,3-dioxoisoindolin-5-yl)piperidin-4-yl)ethyl)piperazin-1-yl)phenyl)amino)-9H-purin-9-yl)cyclobutyl)-2-phenylacetamide]
4 | 10% | 0% | 0% | 20% | 0% | 0% | O=C1CC[C@@H](c2cccc(OCC(=O)N3CCN(CCCN4CCN(c5ccc(Nc6ncnc7c6ncn7C6CC(NC(=O)Cc7ccccc7)C6)cc5)CC4)CC3)c2)C(=O)N1 (stereo partly drawn) [Compound 237, N-((1s,3s)-3-(6-((4-(4-(3-(4-(2-(3-(2,6-dioxopiperidin-3-yl)phenoxy)acetyl)piperazin-1-yl)propyl)piperazin-1-yl)phenyl)amino)-9H-purin-9-yl)cyclobutyl)-2-phenylacetamide]
5 | 60% | 20% | 20% | 50% | 0% | 0% | Cc1cccc(C(=O)NC2CC(n3cnc4c(NC5CCN(CCC6CCN(C(=O)COc7cccc8c7C(=O)N([C@H]7CCC(=O)NC7=O)C8=O)CC6)CC5)ncnc43)C2)n1 (stereo partly drawn) [Compound 32, N-((1s,3s)-3-(6-((1-(2-(1-(2-((2-(2,6-dioxopiperidin-3-yl)-1,3-dioxoisoindolin-4-yl)oxy)acetyl)piperidin-4-yl)ethyl)piperidin-4-yl)amino)-9H-purin-9-yl)cyclobutyl)-6-methylpicolinamide]
6 | 40% | 30% | 30% | 0/0/0% | 0/0/0% | 0/0/0% | Cc1cccc(C(=O)N[C@H]2C[C@@H](n3cnc4c(Nc5ccc(N6CCN(C7CC8(CCN(c9cc%10c(cc9F)C(=O)N([C@H]9CCC(=O)NC9=O)C%10=O)CC8)C7)CC6)cc5)ncnc43)C2)n1 [Compound 385, N-((1s,3s)-3-(6-((4-(4-(7-(2-(2,6-dioxopiperidin-3-yl)-6-fluoro-1,3-dioxoisoindolin-5-yl)-7-azaspiro[3.5]nonan-2-yl)piperazin-1-yl)phenyl)amino)-9H-purin-9-yl)cyclobutyl)-6-methylpicolinamide]
7 | 50% | 50% | 80% | 30% | 10% | 0% | Cc1cccc(C(=O)N[C@H]2C[C@@H](n3cnc4c(NCCCN5CCN(CC6CCN(C(=O)COc7cccc([C@@H]8CCC(=O)NC8=O)c7)CC6)CC5)ncnc43)C2)n1 [Compound 230, N-((1s,3s)-3-(6-((3-(4-((1-(2-(3-(2,6-dioxopiperidin-3-yl)phenoxy)acetyl)piperidin-4-yl)methyl)piperazin-1-yl)propyl)amino)-9H-purin-9-yl)cyclobutyl)-6-methylpicolinamide]
8 | 80% | 100% | 50% | 0/0/0% | 0/0/0% | 0/0/0% | O=C(COc1ccc(C2CCC(=O)NC2=O)cc1)NC[C@H]1CC[C@H](CN2CCN(c3ccc(Nc4ncnc5c4ncn5[C@H]4C[C@@H](NC(=O)Cc5ccccc5)C4)cc3)CC2)CC1 (stereo partly drawn) [Compound 217, 2-(4-(2,6-dioxopiperidin-3-yl)phenoxy)-N-(((1r,4r)-4-((4-(4-((9-((1s,3s)-3-(2-phenylacetamido)cyclobutyl)-9H-purin-6-yl)amino)phenyl)piperazin-1-yl)methyl)cyclohexyl)methyl)acetamide]
9 | 80% | 60% | 60% | 20% | 0% | 0% | O=C1CC[C@H](N2C(=O)c3cc(F)c(N4CCC(C(=O)N5CCC(CCN6CCN(c7ccc(Nc8ncnc9c8ncn9[C@H]8C[C@@H](NC(=O)Cc9ccccc9)C8)cc7)CC6)CC5)CC4)cc3C2=O)C(=O)N1 [Compound 457, N-((1s,3s)-3-(6-((4-(4-(2-(1-(1-(2-(2,6-dioxopiperidin-3-yl)-6-fluoro-1,3-dioxoisoindolin-5-yl)piperidin-4-carbonyl)piperidin-4-yl)ethyl)piperazin-1-yl)phenyl)amino)-9H-purin-9-yl)cyclobutyl)-2-phenylacetamide]
10 | 30/30/30% | 30/30/30% | 30/30/30% | 40% | 20% | 20% | O=C1CC[C@H](N2C(=O)c3ccc(N4CC(C(=O)N5CCN(C6CN(c7ccc(Nc8ncnc9c8ncn9[C@H]8C[C@@H](NC(=O)Cc9ccccc9)C8)cc7)C6)CC5)C4)cc3C2=O)C(=O)N1 [Compound 373, N-((1s,3s)-3-(6-((4-(3-(4-(1-(2-(2,6-dioxopiperidin-3-yl)-1,3-dioxoisoindolin-5-yl)azetidin-3-carbonyl)piperazin-1-yl)azetidin-1-yl)phenyl)amino)-9H-purin-9-yl)cyclobutyl)-2-phenylacetamide]
11 | 20% | 10% | 10% | 10/10/10% | 10/10/10% | 10/10/10% | O=C1CC[C@H](n2nnc3ccc(N4CCC(CCCN5CCN(c6ccc(Nc7ncnc8c7ncn8C7CC(NC(=O)Cc8ccccc8)C7)cc6)CC5)CC4)cc3c2=O)C(=O)N1 (stereo partly drawn) [Compound 351, N-((1s,3s)-3-(6-((4-(4-(3-(1-(3-(2,6-dioxopiperidin-3-yl)-4-oxo-3,4-dihydrobenzo[d][1,2,3]triazin-6-yl)piperidin-4-yl)propyl)piperazin-1-yl)phenyl)amino)-9H-purin-9-yl)cyclobutyl)-2-phenylacetamide]
12 | 100% | 50% | 40% | 100% | 0% | 0% | Cc1cccc(C(=O)N[C@H]2C[C@@H](n3cnc4c(NCc5ccc(OCCCN6CCN(C(=O)COc7ccc8c(c7)C(=O)N([C@H]7CCC(=O)NC7=O)C8=O)CC6)cc5)ncnc43)C2)n1 [Compound 112, N-((1s,3s)-3-(6-((4-(3-(4-(2-((2-(2,6-dioxopiperidin-3-yl)-1,3-dioxoisoindolin-5-yl)oxy)acetyl)piperazin-1-yl)propoxy)benzyl)amino)-9H-purin-9-yl)cyclobutyl)-6-methylpicolinamide]
13 | 40% | 30% | 30% | 40% | 30% | 30% | O=C1CC[C@H](N2C(=O)c3cccc(N4CC(N5CCC6(CC5)CC(N5CCN(c7ccc(Nc8ncnc9c8ncn9[C@H]8C[C@@H](NC(=O)Cc9ccccc9)C8)cc7)CC5)C6)C4)c3C2=O)C(=O)N1 [Compound 270, N-((1s,3s)-3-(6-((4-(4-(7-(1-(2-(2,6-dioxopiperidin-3-yl)-1,3-dioxoisoindolin-4-yl)azetidin-3-yl)-7-azaspiro[3.5]nonan-2-yl)piperazin-1-yl)phenyl)amino)-9H-purin-9-yl)cyclobutyl)-2-phenylacetamide]
